Measured values as given in US12071425B2 (Genentech, Inc., priority 2018, dated 2024).

Molecular target: kinase domain of IRE1 alpha (His-tagged kinase dead construct KR, AA G547-L977, D688N) (Homo sapiens (Human), UniProt O75460, D688N)
Assay: IRE1α TR-FRET competition binding assay
Details: competition with Kinase Tracer 236, 0.1 μM; one hour at room temperature
Outline: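 Compound displacement of an ATP-site fluorescent tracer (0.1 μM final) measured by TR-FRET after 1 h at room temperature. Protein, a His-tagged D688N kinase/RNase construct from Sf9 cells (0.006 μM final), was pre-bound 1 h at 4° C to Eu anti-His antibody (0.002 μM) in pH 7.5 HEPES buffer.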

Chain of kinase domain of IRE1 alpha (His-tagged kinase dead construct KR, AA G547-L977, D688N) (O75460 547-977 D688N): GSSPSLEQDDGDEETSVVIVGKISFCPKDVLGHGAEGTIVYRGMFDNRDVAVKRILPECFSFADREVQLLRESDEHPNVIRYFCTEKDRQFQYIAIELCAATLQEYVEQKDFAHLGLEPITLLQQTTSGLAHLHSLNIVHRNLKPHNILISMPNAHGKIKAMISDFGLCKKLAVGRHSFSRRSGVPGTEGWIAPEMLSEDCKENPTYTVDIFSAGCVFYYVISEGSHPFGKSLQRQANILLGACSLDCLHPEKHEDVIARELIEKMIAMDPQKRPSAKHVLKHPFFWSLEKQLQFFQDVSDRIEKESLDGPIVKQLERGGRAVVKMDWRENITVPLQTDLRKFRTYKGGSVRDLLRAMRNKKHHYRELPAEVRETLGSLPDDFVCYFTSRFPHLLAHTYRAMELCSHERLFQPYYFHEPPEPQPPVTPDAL

## Cc1c(Oc2ncccc2-c2ccnc(N[C@H]3CCCNC3)n2)ccc(NS(=O)(=O)Cc2ccccc2)c1F [Compound 237, N-[2-Fluoro-3-methyl-4-[[3-[2-[[(3S)-3-piperidyl]amino]pyrimidin-4-yl]-2-pyridyl]oxy]phenyl]-1 phenylmethanesulfonamide]
  IC50: 8.4 nM

## O=S(=O)(Cc1ccccn1)Nc1ccc(Oc2ncccc2-c2ccnc(N[C@H]3CCCNC3)n2)c(F)c1F [Compound 238, (S)—N-(2,3-Difluoro-4-(3-(2-(piperidin-3-ylamino)pyrimidin-4-yl)pyridin-2-yloxy)phenyl)-1-(pyridin-2-yl)methanesulfonamide]
  IC50: 14 nM

## N#Cc1ccc(CS(=O)(=O)Nc2ccc(Oc3ncccc3-c3ccnc(N[C@H]4CCCNC4)n3)c(F)c2F)cc1 [Compound 250, (S)-1-(4-Cyanophenyl)-N-(2,3-difluoro-4-((3-(2-(piperidin-3-ylamino)pyrimidin-4-yl)pyridin-2-yl)oxy)phenyl)methanesulfonamide]
  IC50: 4.9 nM

## C[C@@]1(F)CNC[C@@H](Nc2nccc(-c3cccnc3Oc3cc(F)c(NS(=O)(=O)CC4CC(F)(F)C4)c(F)c3F)n2)C1 [Compound 251, 1-(3,3-Difluorocyclobutyl)-N-(2,3,6-trifluoro-4-((3-(2-(((3S,5S)-5-fluoro-5-methylpiperidin-3-yl)amino)pyrimidin-4-yl)pyridin-2-yl)oxy)phenyl)methanesulfonamide]
  IC50: 2.8 nM

## COCCS(=O)(=O)Nc1c(F)cc(Oc2ncccc2-c2ccnc(N[C@@H]3CNC[C@@H](F)C3)n2)c(F)c1F [Compound 252, 2-Methoxy-N-(2,3,6-trifluoro-4-((3-(2-(((3S,5S)-5-fluoropiperidin-3-yl)amino)pyrimidin-4-yl)pyridin-2-yl)oxy)phenyl)ethane-1-sulfonamide]
  IC50: 14 nM

## CC(F)(F)CCS(=O)(=O)Nc1c(F)cc(Oc2ncccc2-c2ccnc(N[C@@H]3CNC[C@@H](F)C3)n2)c(F)c1F [Compound 253, 3,3-Difluoro-N-(2,3,6-trifluoro-4-((3-(2-(((3S,5S)-5-fluoropiperidin-3-yl)amino)pyrimidin-4-yl)pyridin-2-yl)oxy)phenyl)butane-1-sulfonamide]
  IC50: 1.9 nM

## O=S(=O)(Cc1ccc(C(F)(F)F)nc1)Nc1c(F)cc(Oc2ncccc2-c2ccnc(N[C@@H]3CNC[C@@H](F)C3)n2)c(F)c1F [Compound 254, N-(2,3,6-Trifluoro-4-((3-(2-(((3S,5S)-5-fluoropiperidin-3-yl)amino)pyrimidin-4-yl)pyridin-2-yl)oxy)phenyl)-1-(6-(trifluoromethyl)pyridin-3-yl)methanesulfonamide]
  IC50: 0.62 nM

## Cc1c(F)c(NS(=O)(=O)Cc2ccc(C#N)cc2)c(F)c(F)c1Oc1ncccc1-c1ccnc(N[C@@H]2CNC[C@@H](F)C2)n1 [Compound 255, 1-(4-Cyanophenyl)-N-(2,3,6-trifluoro-4-((3-(2-(((3S,5S)-5-fluoropiperidin-3-yl)amino)pyrimidin-4-yl)pyridin-2-yl)oxy)-5-methylphenyl)methanesulfonamide]
  IC50: 230 nM

## O=S(=O)(Cc1cccnc1)Nc1c(F)cc(Oc2ncccc2-c2ccnc(N[C@@H]3CNC[C@@H](F)C3)n2)c(F)c1F [Compound 256, 1-(Pyridin-3-yl)-N-(2,3,6-trifluoro-4-((3-(2-(((3S,5S)-5-fluoropiperidin-3-yl)amino)pyrimidin-4-yl)pyridin-2-yl)oxy)phenyl)methanesulfonamide]
  IC50: 1 nM

## C[C@H]1CC[C@H](Nc2nccc(-c3cccnc3Oc3cc(F)c(NS(=O)(=O)Cc4ccccc4)c(F)c3F)n2)CN1 [Compound 257, 1-Phenyl-N-(2,3,6-trifluoro-4-((3-(2-(((3S,6S)-6-methylpiperidin-3-yl)amino)pyrimidin-4-yl)pyridin-2-yl)oxy)phenyl)methanesulfonamide]
  IC50: 24 nM

## O=S(=O)(Nc1c(F)cc(Oc2ncccc2-c2ccnc(N[C@@H]3CNC[C@@H](F)C3)n2)c(F)c1F)N1CCCC1 [Compound 258, N-(2,3,6-Trifluoro-4-((3-(2-(((3S,5S)-5-fluoropiperidin-3-yl)amino)pyrimidin-4-yl)pyridin-2-yl)oxy)phenyl)pyrrolidine-1-sulfonamide]
  IC50: 5.2 nM

## O=S(=O)(Cc1ccccc1)Nc1c(F)cc(Oc2ncccc2-c2ccnc(N[C@@H]3CNC[C@H](F)C3)n2)c(F)c1F [Compound 259, 1-Phenyl-N-(2,3,6-trifluoro-4-((3-(2-(((3S,5R)-5-fluoropiperidin-3-yl)amino)pyrimidin-4-yl)pyridin-2-yl)oxy)phenyl)methanesulfonamide]
  IC50: 2 nM

## O=S(=O)(CC1(F)CC1)Nc1c(F)cc(Oc2ncccc2-c2ccnc(N[C@@H]3CNC[C@@H](F)C3)n2)c(F)c1F [Compound 261, 1-(l-Fluorocyclopropyl)-N-(2,3,6-trifluoro-4-((3-(2-(((3S,5S)-5-fluoropiperidin-3-yl)amino)pyrimidin-4-yl)pyridin-2-yl)oxy)phenyl)methanesulfonamide]
  IC50: 3.5 nM

## O=S(=O)(Cc1ccccc1)Nc1c(F)cc(Oc2ncccc2-c2ccnc(N[C@@H]3CNC[C@H](CF)C3)n2)c(F)c1F [Compound 262, 1-Phenyl-N-(2,3,6-trifluoro-4-((3-(2-(((3S,5R)-5-(fluoromethyl)piperidin-3-yl)amino)pyrimidin-4-yl)pyridin-2-yl)oxy)phenyl)methanesulfonamide]
  IC50: 0.25 nM

## O=S(=O)(Nc1c(F)cc(Oc2ncccc2-c2ccnc(N[C@@H]3CNC[C@@H](F)C3)n2)c(F)c1F)N1CCCCC1 [Compound 263, N-(2,3,6-Trifluoro-4-((3-(2-(((3S,5S)-5-fluoropiperidin-3-yl)amino)pyrimidin-4-yl)pyridin-2-yl)oxy)phenyl)piperidine-1-sulfonamide]
  IC50: 1.5 nM

## CN(C)S(=O)(=O)Nc1c(F)cc(Oc2ncccc2-c2ccnc(N[C@@H]3CNC[C@@H](F)C3)n2)c(F)c1F [Compound 266, 4-(2-(4-(Dimethylsulfamoylamino)-2,3,5-trifluoro-phenoxy)-3-pyridyl)-2-(((3S,5S)-5-fluoro-3-piperidyl)amino)pyrimidine]
  IC50: 8.6 nM

## O=S(=O)(CCC1CC1)Nc1c(F)cc(Oc2ncccc2-c2ccnc(N[C@@H]3CNC[C@@H](F)C3)n2)c(F)c1F [Compound 267, 2-Cyclopropyl-N-(2,3,6-trifluoro-4-((3-(2-(((3S,5S)-5-fluoropiperidin-3-yl)amino)pyrimidin-4-yl)pyridin-2-yl)oxy)phenyl)ethane-1-sulfonamide]
  IC50: 2.2 nM

## CCC(F)(F)CS(=O)(=O)Nc1c(F)cc(Oc2ncc(F)cc2-c2ccnc(N[C@@H]3CNC[C@@H](F)C3)n2)c(F)c1F [Compound 268, 2,2-Difluoro-N-(2,3,6-trifluoro-4-((5-fluoro-3-(2-(((3S,5S)-5-fluoropiperidin-3-yl)amino)pyrimidin-4-yl)pyridin-2-yl)oxy)phenyl)butane-1-sulfonamide]
  IC50: 1.1 nM

## CCN(C)S(=O)(=O)Nc1c(F)cc(Oc2ncccc2-c2ccnc(N[C@@H]3CNC[C@@H](F)C3)n2)c(F)c1F [Compound 269, 4-(2-(4-((Ethyl(methyl)sulfamoyl)amino)-2,3,5-trifluoro-phenoxy)-3-pyridyl)-2-(((3S,5S)-5-fluoro-3-piperidyl)amino)pyrimidine]
  IC50: 1.1 nM
